Measurements reported in patent US11596643B2 (Sichuan Yingrui Pharmaceutical Technology Company, priority 2019, dated 2023).
Converted amounts (≈) assume the structure as drawn.

Legend:
EMT-6 breast cancer = assay: In-vivo pharmacodynamic test, tumor-bearing mice; conditions: EMT-6 breast cancer tumor-bearing mice, 5 mg/kg adriamycin equivalent, intravenously injected 4 times
Protocol: (§1) In-vivo pharmacodynamic test: H22 liver cancer cells, 4T1 breast cancer cells, EMT6 breast cancer cells and HT-29 colon cancer cells that were growing at logarithmic phase were collected, and the concentration of the cell suspension was adjusted to 3×10^7 cells/mL. The cells were subcutaneously inoculated into right upper extremity of Balb/c mice or nude mice with 0.1 mL per mouse (containing about 3×10^6 cells). After the average tumor volume of the inoculated mice was reached 100 mm^3, the tumor-bearing mice were randomly divided into a negative control group (with 0.9% sodium chloride injection), an adriamycin control group (5 mg/kg) and a pectin-adriamycin experimental group (the equivalent of adriamycin being 5 mg/kg) respectively, 8 mice for each group, the above various drugs were intravenously injected for 4 times in total. The tumor volume change and the body weights were recorded, and the equation for volume calculation was as follows: volume=(length×width^2)/2.

H22 liver cancer [1] = assay: In-vivo pharmacodynamic test, tumor-bearing mice; conditions: 5 mg/kg adriamycin equivalent, intravenously injected 4 times
Protocol: as §1

4T1 breast cancer [2] = assay: In-vivo pharmacodynamic test, tumor-bearing mice; conditions: 4T1 breast cancer tumor-bearing mice, 5 mg/kg adriamycin equivalent, intravenously injected 4 times
Protocol: as §1

[3] = tested on: SMMC7721 liver cancer cells; assay: In-vitro cytotoxicity test (CCK-8); format: cell-based
Protocol: (§2) In-vitro cytotoxicity test: HT-29 colon cancer cells, HepG-2 liver cancer cells, SMMC7721 liver cancer cells, SKOV3 ovarian cancer cells and MCF-7 breast cancer cells that were growing at the logarithmic phase were collected. The concentration of cell suspension was adjusted, and 100 uL of the cell suspension was added per well, then the cells were plated so that the density of cells to be tested was 4000 cells/well (the marginal wells being filled with a sterile PBS). Incubation was performed for 24 hours at 5% CO2 and 37° C. Then the medium was discarded, and pectin-adriamycin or adriamycin with a concentration gradient (containing 0.125, 0.25, 0.5, 1.0, 2.0, 4.0, 8.0 and 16.0 ug/mL of […]) was added, and three repetitions were set for each concentration. Then incubation was performed for 48 hours in an incubator at 5% CO2 and 37° C. 10 μl of a CCK-8 solution was added to each well to continue cultivation for 2 hours. The absorbance of each well at 450 nm was measured with an Enzyme-labelled meter, and IC50 values of pectin-adriamycin and adriamycin for various cancer cells were calculated.

[4] = tested on: HepG-2 liver cancer cells; assay: In-vitro cytotoxicity test (CCK-8); format: cell-based
Protocol: as §2

[5] = tested on: MCF-7 breast cancer cells; assay: In-vitro cytotoxicity test (CCK-8); format: cell-based
Protocol: as §2

[6] = tested on: SKOV3 ovarian cancer cells; assay: In-vitro cytotoxicity test (CCK-8); format: cell-based
Protocol: as §2

HT-29 colon cancer cells = assay: In-vitro cytotoxicity test (CCK-8); format: cell-based
Protocol: as §2

[7] = Body weight and death of tumor-bearing mice in the in-vivo pharmacodynamic test
Protocol: as §1

Solubility in water = format: physicochemical
HT-29 colon cancer = assay: In-vivo pharmacodynamic test, tumor-bearing mice; conditions: HT-29 colon cancer tumor-bearing mice, 5 mg/kg adriamycin equivalent, intravenously injected 4 times
Protocol: as §1

H22 liver cancer [8] = assay: Comparison with the control compound, H22 liver cancer mice tumor model; format: in vivo
4T1 breast cancer [9] = assay: Comparison with the control compound, 4T1 breast cancer mice tumor model; format: in vivo
[10] = tumor-bearing mice, 5 mg/kg adriamycin equivalent, i.v. 4 times
[11] = Example 16, conjugate intravenous, control intraperitoneal

Compound: COc1cccc2c1C(=O)c1c(O)c3c(c(O)c1C2=O)C[C@@](O)(C(=O)CO)C[C@@H]3O[C@H]1C[C@H](N)[C@H](O)[C@H](C)O1 [adriamycin, reference compound]
- tumor growth inhibition rate (EMT-6 breast cancer): 56.95%
- tumor growth inhibition rate (H22 liver cancer [1]): 53.42%
- tumor growth inhibition rate (4T1 breast cancer [2]): 50.61%
- IC50 ([3]; Homo sapiens, SMMC-7721, 48 hours incubation): 2.62 µg/mL (≈ 4.82 µM)
- IC50 ([4]; Homo sapiens, HepG2, 48 hours incubation): 4.38 µg/mL (≈ 8.05 µM)
- IC50 ([5]; Homo sapiens, MCF7, 48 hours incubation): 3.97 µg/mL (≈ 7.3 µM)
- IC50 ([6]; Homo sapiens, SK-OV-3, 48 hours incubation): 5.7 µg/mL (≈ 10.5 µM)
- IC50 (HT-29 colon cancer cells; Homo sapiens, HT-29, 48 hours incubation): 10.9 µg/mL (≈ 20.1 µM)
- body weight decrease ([7]; mouse, in vivo, iv, 5 mg/kg): more than 15%
- body weights of the mice ([7]; mouse, in vivo, iv, 5 mg/kg): significantly decreased
- death of mice [7, 10]: minormice died

Compound: modified pectin-PEG8-VAPABC-adriamycin [pectin-adriamycin conjugate]
- Solubility in water (Solubility in water): 10 mg/ml, solubility being
- tumor growth inhibition rate (EMT-6 breast cancer): 71.68%
- curative effect (HT-29 colon cancer): better than that of the adriamycin control
- tumor growth inhibition rate (H22 liver cancer [1]): 72.98%
- tumor growth inhibition rate (4T1 breast cancer [2]): 78.1%
- tumor inhibition rate (H22 liver cancer [8]; [11]): 70.83%
- inhibition time (H22 liver cancer [8]; same dosage, versus control compound (FIG. 8)): longer
- IC50, SMMC7721 liver cancer ([3]; 48 hours incubation): 2.31 µg/mL
- IC50, HepG-2 liver cancer ([4]; 48 hours incubation): 4.11 µg/mL
- IC50, MCF-7 breast cancer ([5]; 48 hours incubation): 3.961 µg/mL
- IC50, SKOV3 ovarian cancer ([6]; 48 hours incubation): 5.488 µg/mL
- IC50, HT-29 colon cancer (HT-29 colon cancer cells; 48 hours incubation): 10.74 µg/mL
- body weights of the mice [7, 10]: not significantly decreased
- death of mice [7, 10]: no a mouse died
- tumor inhibition rate (4T1 breast cancer [9]; [11]): 76.20%
- inhibition time (4T1 breast cancer [9]; same dosage, versus control compound (FIG. 9)): longer
